The nature of assay [1]: T2MR fibrinogen assay with thrombin. The note with it: 45 μM MnSO4 in buffer diluent. More on the design: species or system human. How it is done:
T2MR measures the formation of fibrin directly in the whole blood or plasma in the presence of thrombin. The solution of thrombin (STAGO, 5 U/mL) is added to the diluted solution of plasma (or blood) and the change in T2 signal is monitored. The sample begins to clot immediately upon addition of thrombin, resulting in a rapid decrease in T2 signal. In order to achieve better sample relaxation rate and reduce noise in the measured T2 signal the paramagnetic material (MnSO4) is added to the buffer diluent (STAGO, Owren-Koller buffer), with a final concentration of the MnSO4 in diluent of 45 μM. […] The buffer diluent containing paramagnetic material is used to prepare thrombin 5 U/mL stock by diluting 80 U/mL stock and to prepare standard dilutions for the calibration curve.

The subject of assay [2] is platelets in blood samples. As to the kind of experiment: T2MR ADP activation titration in Triton X-100 coated polypropylene tubes. The assay is classed as cell-based, human. The note with it: Triton X-100 coated tube. The method, then:
Platelet-induced clot contraction was used for measuring platelet activity and inhibition using a formulation of reptilase (RF), factor XIIIa (FXIIIa), and platelet agonist such as arachidonic acid (AA) or adenosine diphosphate (ADP). The RF and FXIIIa induce the formation of a fibrin mesh rapidly without activating platelets. This occurs rapidly as compared to clot contraction. Briefly, blood samples were activated with varying levels of ADP in 0.2 mL polypropylene tubes coated with Triton X-100. […] Additionally, levels below […] are now able to show a clot contraction signal when the polypropylene surface is coated with Triton X-100. Furthermore, this signal is much stronger than that previously observed for ADP activated samples in polypropylene tubes without coating.

Assay [3] deals with platelets in whole blood. As to the kind of experiment: T2MR platelet-induced clot contraction with platelet agonist, uncoated polypropylene tube. In kind it is cell-based, human. From the text: Platelet-induced clot contraction was used for measuring platelet activity and inhibition using a formulation of reptilase (RF), factor XIIIa (FXIIIa), and platelet agonist such as arachidonic acid (AA) or adenosine diphosphate (ADP). The RF and FXIIIa induce the formation of a fibrin mesh rapidly without activating platelets. This occurs rapidly as compared to clot contraction. In developing a platelet activity assay for the agonist arachidonic acid (AA) we were able to see reproducible […] signatures that titrated with the concentration of AA as expected ([…] curves acquired from whole blood with 0.5 mM, 1.0 mM, and 1.5 mM AA). In a typical clot contraction signal there is an upper […] signal that increases rapidly between 5 and 10 minutes and the appearance of a lower […] signal around the same point in time. The upper signal corresponds to water excreted from the clot and the lower signal corresponds to water trapped in the contracted clot. The lowest level has the slowest kinetics. […] In developing a platelet activity assay for the agonist ADP we encountered a problem with reproducibility. For example, in triplicate measures (3 samples obtained in parallel from freshly drawn blood) the clot contraction signal might appear for only one sample and/or the triplicate measures might vary in the signal intensity of the clot contraction signal. Reproducible results were obtained from AA, but not ADP. This is believed to result from the fact that AA is a stronger platelet activator than ADP. This conclusion is supported by the following observations. […] Second, aging the blood could lead to stronger clot contraction signals, presumably due to basal thrombin activation that led to more platelet induced clot contraction. Third, adding low levels of thrombin could lead to more platelet induced clot contraction. Therefore, there is a difference in the strength of platelet activation for AA and ADP.

Assay [4] relates to platelet activity. Kind of assay: T2MR platelet inhibition, heparin blood activated by AA+RF. The assay is classed as cell-based, human. Conditions: 600 μM aspirin ex vivo. How it is done:
In this experiment platelet inhibition was monitored by the addition of 600 μM aspirin ex vivo to heparin blood prior to activation by AA+RF (samples were tested with and without aspirin). […] These studies confirmed that the clot signature was dependent on platelet activity.

Assay [5] deals with platelets in whole blood. Conditions: 5-20 μM epinephrine. The method, then: A titration of epinephrine ranging from 5-20 μM was added to the activation cocktail (comprised of reptilase, factor XIIIa, calcium, and platelet activator). 4 μL of the activation cocktail was added to 36 μL of whole blood in a coated tube. The tube containing the reaction was placed in a T2MR reader. T2MR relaxation curve data was processed with an Inverse Laplace transformation algorithm.

The nature of assay [6]: PT clotting time, T2MR and Stago. More on the design: species or system human. The note with it: spiked 10 ng/mL-1000 ng/mL. How it is done:
Clotting times were measured by […] by first establishing a time zero T2 value (i.e., by taking the first point or some sort of average or linear fit to the first 5-10 data points) of the T2 time curve, and second identifying the time point (i.e., the clotting time or PT time) in the T2 time curve when the T2 value had changed by a predetermined amount (e.g. 5% or 10%) indicative of clotting in the sample. From the observed PT clotting time the INR was calculated using the methods described in Jan et al., Clin. Chem. 35:840 (1989). […] 18 normal samples and 24 abnormal samples were tested against a reference range established by 20 normal samples. Abnormal samples with prolonged PT times were obtained by spiking increasing levels of the anti-Xa inhibitor Rivaroxiban (10 ng/mL-1000 ng/mL). Correlation with TEG clotting time was obtained across >40 normal patient samples with non-optimized R2 correlation of >0.8. (see FIG. 14B). PT time correlations with Stago for plasma (see FIG. 14D) and with Hemochron for whole blood (see FIG. 14C) were also found.

Assay [7] deals with platelets. As to the kind of experiment: Tube-dried collagen as platelet activator, T2MR. Conditions: 2 micrograms dried in microtube; whole blood and RBC-depleted plasma. The assay is classed as cell-based. How it is done:
Collagen is a potent activator of platelets, and recognition of exposed collagen from the cellular matrix is one of the in vivo signals for platelet activation. […] To prepare the tube, 2 micrograms (2 μL of a 1 mg/ml solution) was deposited in the bottom of a microtube and the tube placed at 37° C. for 2-5 hours. A tube prepared in this way can be kept at room temperature or at 37° C. for several weeks. To measure a T2MR signature 34 μL of citrated whole blood (or RBC-depleted blood) were added to the tube at 37 degrees; after 1 minute 2 μL of 0.2M CaCl2 was added and the sample placed in the magnet for relaxation measurements and analysis.

Consider `O=S(=O)([O-])[O-].[Mn+2]` [MnSO4], for which the “effect on the clotting process” value in assay [1] was “no significant effect”.

With `Nc1ncnc2c1ncn2[C@@H]1O[C@H](COP(=O)(O)OP(=O)(O)O)[C@@H](O)[C@H]1O` [ADP, adenosine diphosphate], the “clot formation T2MR signal” value in assay [2] (2.5 mM ADP) is listed as “partial clot formation is observed”; in assay [2] (0.5 and 1 mM ADP) it was “no clot formation signal is observed”; in assay [2] (5, 10, 20 mM ADP) it was “complete clot formation is observed”. In assay [3] (ADP activation), the “clot retraction after gel phase” value is on record as “retraction does not occur”. The platelet-induced clot contraction entry in assay [3] (ten-fold excess (over standard levels) of ADP) was “weak and irreproducible platelet-induced clot contraction”.

Take `CCCCC/C=C\C/C=C\C/C=C\C/C=C\CCCC(=O)O` [AA, arachidonic acid]: in assay [3], the “concentration that typically causes clot retraction” value is 0.5 to 1 mM. Also, the platelet-induced clot contraction result in assay [3] (typical level of AA) is listed as “strong platelet-induced clot contraction”.

As to `CC(=O)Oc1ccccc1C(=O)O` [aspirin, acetylsalicylic acid], the “clot-associated T2 signal” value in assay [4] is “dramatically diminished or absent”.

As for `CNC[C@H](O)c1ccc(O)c(O)c1` [epinephrine], in assay [5], the “sample response (clot contraction)” value is “responsive” and the “timing of clot contraction” value is listed as “dose dependent”.

Take `O=C(NC[C@H]1CN(c2ccc(N3CCOCC3=O)cc2)C(=O)O1)c1ccc(Cl)s1` [Rivaroxiban]: the PT times entry in assay [6] was “prolonged”.

Take collagen: in assay [7], the T2MR clot peak entry is on record as “effectively generate a T2MR clot peak”.

(Values after patent US9739733B2, “Methods for monitoring tight clot formation” (T2 Biosystems, Inc., priority 2012, dated 2017).)
